# US20090325909A1, “Suppression of HIV replication and prevention and treatment of HIV” (The Johns Hopkins University, priority 2003, published 2009)
# Where a name gives a salt, the structure may show the parent alone.
# Tests used:
# HIVBaL = test: HIV replication in primary human macrophages, p24 ELISA; type: cell-based
# Description: (§1) The HIV strains used in these experiments were HIVBaL (for macrophage infection) and HIVIIIB (for lymphocyte infection); the SIV strains were SIV/17E-Fr and SIV/DeltaB670 (both grow well in primary macrophages and lymphocytes.).
# (§2) Virus replication was quantified over time by p24 (HIV) or p27 (SIV) ELISA.
# HIVIIIB = test: HIV replication in primary human PBL, p24 ELISA; type: cell-based
# Description: as §1, §2
# [1] = tested on: SIV/DeltaB670 and SIV/17E-Fr; test: Incidence and severity of encephalitis in the accelerated SIV/macaque model; type: in vivo, pigtailed macaques (Macaca nemestrina); conditions: 4 mg/kg/day oral from 21 days p.i., euthanized at 84 days p.i., n = 5
# Description: Primate model for asymptomatic acute SIV infection. To identify events during acute and asymptomatic infection that lead to CNS disease a SIV/macaque model was developed in which the vast majority of infected animals develop CNS disease. […] These findings indicated the presence of mechanisms in the CNS that quell SIV replication and macrophage activation early after infection.
# To identify events during acute and asymptomatic infection that lead to CNS disease in a SIV/macaque, a model was needed in which the vast majority of infected animals develop CNS disease. […] Virus replication and macrophage activation markers in the CNS declined in all macaques by 21 days p.i., despite high levee virus replication in the peripheral blood at this time. These findings indicated the presence of mechanisms in the CNS that quell SIV replication and macrophage activation early after infection.
# Animals. Twenty-eight pigtailed macaques (Macaca nemestrina) were intravenously inoculated with a virus swarm, SIV/DeltaB670, and a cloned, neurovirulent virus, SIV/17Efr. Samples of brain tissue (basal ganglia and adjacent subcortical white matter) from macaques euthanized at 10 (n=6), 21′ (n=5), 56 (n=5) and 84 (n−=12) days p.i., and from uninfected control macaques (n=3 to 8) were fixed and embedded and […] sections were cut for immunohistochemical analysis of MAPKs. Of the macaques euthanized at 84 days p.i., one had no morphologic signs of encephalitis, two had mild encephalitis, five had moderate encephalitis and four had severe encephalitis based on morphologic criteria.
# All macaques were euthanized at 84 days p.i. and their brains examined for pathological lesions typical of SIV encephalitis.
# [2] = tested on: SIV/17E-Fr and SIV/DeltaB670; test: SIV replication in primary macaque PBL, p27 ELISA; type: cell-based; conditions: pretreated with minocycline 24 hr prior to infection
# Description: as §1, §2
# [3] = tested on: SIV/17E-Fr and SIV/DeltaB670; test: SIV replication in primary macaque macrophages, p27; type: cell-based; conditions: for reduction in SIV p27 levels: SIV/DeltaB670-infected macrophages, 10 days p.i.
# Description: as §1, §2
# Inhibition of SIV Virus in vitro. […]
# [4] = pretreated with minocycline 24 hr prior to infection
smiles,measurement,setting,value
"CN(C)c1ccc(O)c2c1C[C@H]1C[C@H]3[C@H](N(C)C)C(O)=C(C(N)=O)C(=O)[C@@]3(O)C(O)=C1C2=O [Minocycline, [4S-(4a,4aa,5aa,12aa)-4,7-bis(dimethylamino)-1,4,4a,5,5a,6,11,12a-octahydro-3,10,12,12a-tetrahydroxy-1,11-dioxo-2-naphthacenecarboxamide]monohydrochloride]",reduction in HIV p24 levels,"HIVBaL; HIV-infected macrophages, 40 μg/ml 24 hours prior to infection, 9 days p.i.",99%
same,inhibition of HIV replication in macrophages,HIVBaL; [4],99%
same,reduction in HIV p24 levels,"HIVIIIB; HIV-infected lymphocytes, 40 μg/ml 24 hours prior to infection, 9 days p.i.",92%
same,inhibition of HIV replication in PBL,HIVIIIB; [4],92%
same,Severity of Encephalitis: Mild (number of macaques),[1],2
same,Severity of Encephalitis: Moderate (number of macaques),[1],0
same,Severity of Encephalitis: None (number of macaques),[1],3
same,Severity of Encephalitis: Severe (number of macaques),[1],0
same,inhibition of SIV replication in PBL,[2],99%
same,inhibition of virus replication,[3]; SIV/17E-Fr-infected macrophages,85%
same,reduction in SIV p27 levels,[3]; 10 μg/ml at the time of infection,95%
same,reduction in SIV p27 levels,[3]; 40 μg/ml prior to infection,98%
same,inhibition of SIV replication in macrophages,[3]; [4],85%
